Entries after “also recorded” stand apart in the source; their conditions may differ. Like-named read-outs stand apart in the source and are kept apart here.
Tests used:
[1] = test system: panel of human and murine lines of tumour cells; test: Cytostatic/cytotoxic activity against panel of tumour cell lines (FIG. 1); format: cell-based; details: in words
Experimental: The cytostatic/cytotoxic activity against adherent cells, from solid tumours cells (EMT6, PAN02, CT26 and T24) was evaluated using the crystalline violet test, whereas against suspension-grown cells of the MTT line. b.d.=no data.
(§1) The cytostatic/cytotoxic activity was evaluated using the following lines of tumour cells: EMT6 (murine breast cancer), PANC02 (murine pancreatic cancer), B78 (murine melanoma), C-26 (murine colon cancer), K562 (human chronic myelogenic leukaemia), T24 (human bladder cancer), RAJI (human Burkitt's lymphoma), Ramos (human Burkitt's lymphoma). The cultures were maintained in the following media: DMEM (EMT6, PANC02, B78), RPMI (C-26, Raji, Ramos), IMDM (K562), McCoy's (T24) with an addition of 10% bovine serum (Invitrogen) and antibiotics (Sigma).
(§2) To determine cytostatic/cytotoxic activity of the evaluated compounds, cell cultures were initiated in 96-well plates. After 24 h, inhibitors were added at set concentrations. The results were determined using colorimetric methods following 72 hours of incubation. To determine cytostatic/cytotoxic activity, crystal violet dyeing was used (reading at 595 nm) or MTT (Sigma; reading at 570 nm).

[2] = target: human recombinant thioredoxin (Homo sapiens (Human), UniProt P10599); test: Thioredoxin activity, insulin reduction / DTNB assay with recombinant enzymes; format: biochemical; details: for thioredoxin activity inhibition in comparison to PX-12: in words; for IC50: 37° C., 30 min, 0.25 μM thioredoxin, 0.325 μM thioredoxin reductase, read-out: IC50 of thioredoxin inhibition
Experimental: The method of determining thioredoxin activity is based on the reduction of insulin by thioredoxin. Thioredoxin is reconstituted is by thioredoxin reductase, with NADPH. The resulting free thiol —SH groups react with 5,5′-dithiobis-2-nitrobenzoic acid (DTNB). The termination of the reaction results in the formation of a […] colour. The intensity of colouration is determined spectrophotometrically at 412 nm and this corresponds to the number of reduced sulfahydryl groups. The reaction was performed at 37° C. over 30 min. in a buffer containing 50 mM Tris-HCl and 20 mM EDTA at a pH of 7.6. The substrate concentrations used were: 0.25 μM human recombinant thioredoxin and 0.325 μM rat recombinant thioredoxin reductase (IMCO Corporation Ltd AB, Sweden) and 316 μM of insulin, 0.8 μM NADPH, 8 mM DTNB (Sigma Aldrich).

[3] = test system: T24 cells; test: Cell cycle analysis by flow cytometry (propidium iodide); format: cell-based, human; details: T24, 72 hours of incubation
From the text: The cell cycle is composed of a series of events leading to cell division. In the cell cycle we differentiate the following phases: G1 (interval between divisions), S (duplication of genetic material) and G2/M (division or mitosis). An analysis of the cel cycle using a flow-through cytometer makes it possible to determine the percentage of cells in each of the phases. Furthermore, the percentage of cells in the so-called subG1 phase: those, whose genetic material has degraded as a result of apoptosis or necrosis.
The cells were stained with propidium iodide at […] and analysed with flow-through cytometry. The percentage of dividing cells duplicating their genetic material (S phase) is clearly lower after incubation with inhibitors of thioredoxin.

[4] = test system: B78 (murine melanoma); test: Cytostatic/cytotoxic activity, B78; format: cell-based; details: B78, after 72 h of incubation
Experimental: as §1, §2

[5] = test system: C-26 (murine colon cancer); test: Cytostatic/cytotoxic activity, C-26; format: cell-based; details: C-26, after 72 h of incubation
Experimental: as §1, §2

[6] = test system: PANC02 (murine pancreatic cancer); test: Cytostatic/cytotoxic activity, PANC02; format: cell-based; details: PANC02, after 72 h of incubation
Experimental: as §1, §2

[7] = test system: RAJI (human Burkitt's lymphoma); test: Cytostatic/cytotoxic activity, RAJI; format: cell-based; details: after 72 h of incubation
Experimental: as §1, §2

[8] = target: T1, glutathione reductase (Homo sapiens (Human), UniProt P00390); test: Glutathione reductase activity, DTNB chromogenic assay (Glutathione Reductase Assay Kit); format: biochemical; details: for IC50: read-out: IC50 of glutathione reductase activity inhibition; for inhibition of glutathione reductase activity: even at a concentration of 100 μM
Experimental: The spatial structures of the active centres of glutathione reductase and the enzymes of the Trx-TrxR system show a high similarity. […] The reactions for determining the activity of recombinant human glutathione reductase made use of a chromogenic reaction with 5,5′-dithiobis-2-nitrobenzoic acid, like in the case of thioredoxin reductase. Activity was determined after 5 and 10 min incubation at room temperature.

[9] = test system: EMT6 (murine breast cancer); test: Cytostatic/cytotoxic activity, EMT6; format: cell-based; details: for LD50 of the evaluated compound: EMT6, after 72 h of incubation
Experimental: as §1
To determine cytostatic/cytotoxic activity of the evaluated compounds, cell cultures were initiated in 96-well plates. After 24 h, inhibitors were added at set concentrations. The results were determined using colorimetric methods following 72 hours of incubation.

[10] = test system: T24 (human bladder cancer); test: Cytostatic/cytotoxic activity, T24; format: cell-based; details: T24, after 72 h of incubation
Experimental: as §1, §2

[11] = test system: K562 (human chronic myelogenic leukaemia); test: Cytostatic/cytotoxic activity, K562; format: cell-based; details: K562, after 72 h of incubation
Experimental: as §1, §2

[12] = test system: Ramos (human Burkitt's lymphoma); test: Cytostatic/cytotoxic activity, Ramos; format: cell-based; details: after 72 h of incubation
Experimental: as §1, §2

[13] = target: rat recombinant thioredoxin reductase (Rattus norvegicus (Rat), UniProt O89049); test: Thioredoxin reductase activity, DTNB chromogenic assay (Thioredoxin Reductase Assay Kit); format: biochemical; details: for IC50: read-out: IC50 of thioredoxin reductase activity inhibition
Experimental: Reactions in which the activity of recombinant rat thioredoxin reductase was determined made use of a chromogenic reaction with 5,5′-dithiobis-2-nitrobenzoic acid.

[14] = target: T1, glutathione reductase; details: literature (Gromer et al. 1998); cited from earlier work
[15] = target: thioredoxin reductase (Homo sapiens (Human), UniProt Q16881); details: literature (Gromer et al. 1998); cited from earlier work
Chain of thioredoxin reductase (Q16881 151-649): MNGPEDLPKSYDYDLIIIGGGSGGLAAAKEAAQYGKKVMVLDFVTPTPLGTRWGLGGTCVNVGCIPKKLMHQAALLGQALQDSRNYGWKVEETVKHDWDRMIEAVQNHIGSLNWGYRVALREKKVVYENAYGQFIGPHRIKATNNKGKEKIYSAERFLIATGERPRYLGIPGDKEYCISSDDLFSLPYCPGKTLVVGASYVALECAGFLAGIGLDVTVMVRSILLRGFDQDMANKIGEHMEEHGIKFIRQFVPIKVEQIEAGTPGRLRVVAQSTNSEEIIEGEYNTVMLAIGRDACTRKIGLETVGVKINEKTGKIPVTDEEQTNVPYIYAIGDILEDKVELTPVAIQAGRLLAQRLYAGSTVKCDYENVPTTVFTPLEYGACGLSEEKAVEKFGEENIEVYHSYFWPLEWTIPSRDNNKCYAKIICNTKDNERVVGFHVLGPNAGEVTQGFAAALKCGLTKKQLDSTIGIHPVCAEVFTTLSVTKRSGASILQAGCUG

T1 sequence (P00390 44-522): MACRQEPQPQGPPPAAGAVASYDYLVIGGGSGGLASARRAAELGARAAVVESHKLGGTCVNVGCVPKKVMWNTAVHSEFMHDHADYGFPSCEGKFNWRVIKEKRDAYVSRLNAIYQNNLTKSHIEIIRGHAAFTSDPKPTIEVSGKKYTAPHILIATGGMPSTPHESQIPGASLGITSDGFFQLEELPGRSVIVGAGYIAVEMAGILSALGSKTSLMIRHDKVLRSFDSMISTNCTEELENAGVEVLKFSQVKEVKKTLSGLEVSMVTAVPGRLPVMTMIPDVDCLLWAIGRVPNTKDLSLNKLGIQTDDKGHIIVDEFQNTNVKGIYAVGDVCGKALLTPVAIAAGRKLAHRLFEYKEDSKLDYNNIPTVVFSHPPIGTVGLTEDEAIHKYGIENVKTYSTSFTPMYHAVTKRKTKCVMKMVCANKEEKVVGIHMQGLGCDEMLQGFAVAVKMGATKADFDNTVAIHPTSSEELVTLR
Chain of rat recombinant thioredoxin reductase (O89049 whole entry): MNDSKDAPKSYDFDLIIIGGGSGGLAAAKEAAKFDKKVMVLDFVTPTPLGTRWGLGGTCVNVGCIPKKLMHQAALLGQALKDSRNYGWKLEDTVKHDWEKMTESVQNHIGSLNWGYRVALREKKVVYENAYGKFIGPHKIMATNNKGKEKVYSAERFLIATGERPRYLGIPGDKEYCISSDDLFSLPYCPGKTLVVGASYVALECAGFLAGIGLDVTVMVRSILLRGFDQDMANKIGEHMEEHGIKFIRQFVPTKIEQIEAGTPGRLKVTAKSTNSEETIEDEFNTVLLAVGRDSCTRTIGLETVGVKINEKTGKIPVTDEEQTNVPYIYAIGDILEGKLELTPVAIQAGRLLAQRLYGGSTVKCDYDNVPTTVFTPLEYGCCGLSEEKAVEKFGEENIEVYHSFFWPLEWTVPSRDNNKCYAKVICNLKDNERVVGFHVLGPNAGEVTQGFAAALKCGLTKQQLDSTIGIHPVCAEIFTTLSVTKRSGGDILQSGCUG
Chain of human recombinant thioredoxin (P10599 whole entry): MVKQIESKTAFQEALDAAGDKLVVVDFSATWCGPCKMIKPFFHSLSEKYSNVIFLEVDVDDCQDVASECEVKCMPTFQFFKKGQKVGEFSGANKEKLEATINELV

## C=C(COC(=O)c1c(C(F)(F)F)cccc1C(F)(F)F)C(=O)N[C@@H](CC(C)C)C(=O)NCC(=O)OCC [Compound L-3a, (S)-2-((1-((2-ethoxy-2-oxoethyl)amino)-4-methyl-1-oxopentan-2-yl)carbamoilo)allyl 2,6-bis(trifluoromethyl)benzoate]
[1]
  cytostatic/cytotoxic activity: strong cytostatic/cytotoxic activity
[2]
  thioredoxin activity inhibition in comparison to PX-12: concentrations smaller than compound PX-12

## C=C(COC(=O)c1c(C(F)(F)F)cccc1C(F)(F)F)C(=O)NC(CC(C)C)C(=O)NCC(=O)OCC (racemic) [Compound 3a, 2-((1-((2-ethoxy-2-oxoethyl)amino)-4-methyl-1-oxopentan-2-yl)carbamoyl)allyl 2,6-bis(trifluoromethyl)benzoate]
[3]
  percentage of dividing cells duplicating their genetic material (S phase): clearly lower
[4]
  LD50 of the evaluated compound: 4.3 µM
[5]
  LD50 of the evaluated compound: 3.2 µM
[1]
  cytostatic/cytotoxic activity: comparable
[6]
  LD50 of the evaluated compound: 3.2 µM
[7]
  LD50 of the evaluated compound: 4.6 µM
[8]; 5 min from reaction onset
  IC50: > 100 µM
[8]; 10 min from reaction onset
  IC50: > 100 µM
[8]
  inhibition of glutathione reductase activity: None
[9]; EMT6
  cytostatic/cytotoxic activity in comparison to PX-12: over two times more active
[9]
  LD50 of the evaluated compound: 5.3 µM
[2]
  thioredoxin activity inhibition in comparison to PX-12: concentrations smaller than compound PX-12; also recorded: three times stronger
[10]
  LD50 of the evaluated compound: 5.1 µM
[11]
  LD50 of the evaluated compound: 3.8 µM
[12]
  LD50 of the evaluated compound: 3.3 µM
[13]; 5 min from reaction onset
  IC50: 37.1 µM
[13]; 15 min from reaction onset
  IC50: > 40 µM
[13]; in words
  inhibition of thioredoxin reductase activity: slightly inhibited
  thioredoxin reductase activity inhibition in comparison to PX-12: about three times less; also recorded: IC50 nearly three times higher

## C=C(COC(=O)c1c(C(F)(F)F)cccc1C(F)(F)F)C(=O)N[C@H](CC(C)C)C(=O)NCC(=O)OCC [Compound D-3a, (R)-2-((1-((2-ethoxy-2-oxoethyl)amino)-4-methyl-1-oxopentan-2-yl)carbamoyl)allyl 2,6-bis(trifluoromethyl)benzoate]
[1]
  cytostatic/cytotoxic activity: strong cytostatic/cytotoxic activity
[2]
  thioredoxin activity inhibition in comparison to PX-12: concentrations smaller than compound PX-12

## C=C(COC(=O)c1c(Cl)cccc1Cl)C(=O)NC(CC(C)C)C(=O)NCC(=O)OCC (racemic) [Compound 3b, 2-((1-((2-ethoxy-2-oxoethyl)amino)-4-methyl-1-oxopentan-2-yl)carbamoyl)allyl 2,6-dichlorobenzoate]
[1]
  cytostatic/cytotoxic activity: strong cytostatic/cytotoxic activity
[2]
  IC50: 2.9 µM
  thioredoxin activity inhibition in comparison to PX-12: concentrations smaller than compound PX-12
[2]; ratio to PX-12
  thioredoxin IC50, times lower than for PX-12: about 5 times

## CCC(C)SSc1ncc[nH]1 (stereo not drawn) [PX-12, 1-methylpropyl-2-imidazole disulphide, reference compound]
[3]
  percentage of dividing cells duplicating their genetic material (S phase): clearly lower
[4]
  LD50 of the evaluated compound: 5.3 µM
[5]
  LD50 of the evaluated compound: 5.4 µM
[6]
  LD50 of the evaluated compound: 3.8 µM
[7]
  LD50 of the evaluated compound: 5.9 µM
[8]; 5 min from reaction onset
  IC50: 19.8 µM
[8]; 10 min from reaction onset
  IC50: 28.6 µM
[9]
  LD50 of the evaluated compound: 12.7 µM
[10]
  LD50 of the evaluated compound: 4.5 µM
[11]
  LD50 of the evaluated compound: 4.9 µM
[12]
  LD50 of the evaluated compound: 3.7 µM

## C=C(COC(=O)c1c(Cl)cccc1Cl)C(=O)NCc1ccccc1 [Compound 8b, 2-(benzylcarbamoyl)allyl 2,6-dichlorobenzoate]
[1]
  cytostatic/cytotoxic activity: strong cytostatic/cytotoxic activity
[8]; 5 min from reaction onset
  IC50: > 100 µM
[8]; 10 min from reaction onset
  IC50: > 100 µM
[8]
  inhibition of glutathione reductase activity: None
[2]
  IC50: 5.9 µM
  thioredoxin activity inhibition in comparison to PX-12: concentrations smaller than compound PX-12
[2]; from Tables 1, 2 and 3
  selectivity as thioredoxin inhibitor in comparison to PX-12: considerably more selective
[13]; 5 min from reaction onset
  IC50: > 40 µM
[13]; 15 min from reaction onset
  IC50: > 40 µM

## CC[P](CC)(CC)=[Au][S]C1OC(OC(C)=O)C(OC(C)=O)C(OC(C)=O)C1OC(C)=O (stereo not drawn) [auranofin]
[14]
  concentrations inhibiting glutathione reductase: micromolar levels
[15]
  concentrations inhibiting thioredoxin reductase: nanomolar concentrations

## C=C(COC(=O)c1c(C(F)(F)F)cccc1C(F)(F)F)C(=O)NCc1ccccc1 [Compound 8a, 2-(benzylcarbamoyl)allyl 2,6-bis(trifluoromethyl)benzoate]
[1]
  cytostatic/cytotoxic activity: strong cytostatic/cytotoxic activity
[8]; 5 min from reaction onset
  IC50: > 100 µM
[8]; 10 min from reaction onset
  IC50: > 100 µM
[13]; 5 min from reaction onset
  IC50: > 40 µM
[13]; 15 min from reaction onset
  IC50: > 40 µM
